For one assay, the target named is T1, Enkephalinase (Rattus norvegicus, UniProt P07861).
T1 construct: Enkephalinase is partially purified from rat kidney; from tissue; host or cells: rat kidney, microvilli fraction (Triton X-100 extract or proteolytic treatment, then Mono Q anion exchange)
T1 sequence (P07861 1-750): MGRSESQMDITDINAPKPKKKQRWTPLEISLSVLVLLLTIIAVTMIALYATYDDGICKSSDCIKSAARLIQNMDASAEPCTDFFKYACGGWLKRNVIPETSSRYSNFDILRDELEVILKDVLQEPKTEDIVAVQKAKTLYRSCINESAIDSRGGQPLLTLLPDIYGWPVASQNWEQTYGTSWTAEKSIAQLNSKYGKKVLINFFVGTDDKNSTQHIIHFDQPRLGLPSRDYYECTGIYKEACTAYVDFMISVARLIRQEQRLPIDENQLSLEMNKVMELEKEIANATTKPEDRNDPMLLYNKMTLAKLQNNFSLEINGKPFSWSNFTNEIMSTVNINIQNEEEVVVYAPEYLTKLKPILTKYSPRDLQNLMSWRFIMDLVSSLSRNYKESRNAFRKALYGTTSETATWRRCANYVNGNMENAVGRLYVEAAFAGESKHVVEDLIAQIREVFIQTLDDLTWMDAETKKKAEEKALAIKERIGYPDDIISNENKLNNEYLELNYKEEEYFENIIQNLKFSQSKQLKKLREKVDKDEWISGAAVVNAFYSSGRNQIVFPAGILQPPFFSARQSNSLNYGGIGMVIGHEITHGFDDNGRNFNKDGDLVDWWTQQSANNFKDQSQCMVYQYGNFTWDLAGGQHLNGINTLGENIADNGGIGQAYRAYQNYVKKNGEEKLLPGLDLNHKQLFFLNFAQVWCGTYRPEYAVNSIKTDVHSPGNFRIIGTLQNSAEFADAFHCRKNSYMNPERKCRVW
The assay is described as follows: Enkephalinase inhibition, fluorometric assay with dansyl-D-AlaGly(p-nitro)PheGly substrate. It counts as biochemical. The conditions noted are these: 50 mM HEPES pH 7.4, 25° C.; for Ki: enzyme partially purified from rat kidney, 12 μM substrate. The text has this: Enkephalinase is partially purified from rat kidney. The enzyme is extracted from the microvilli fraction by using Triton X-100 according to the method of Malfroy and Schwartz [J. Biol. Chem. 259, 14365-14370 (1984)] or by using a proteolytic treatment according to the method of Almenoff and Orlowski [Biochem. 22, 590-599 (1983)]. The enzyme is further purified by anion exchange chromatography (Mono QTM column, Pharmacia) using a Pharmacia FPLC system. The enzyme activity may be measured by the fluorometric methods of Florentin et al. [Anal. Biochem. 141, 62-69 (1984)] or of Almenoff and Orlowski [J. Neurochemistry 42, 151-157 (1984)]. […] The substrate (and inhibitor) is added from a concentrated stock solution in DMSO (up to […] DMSO final volume). The enzyme in a small volume (approximately 0.1 μg of FPLC purified protein) is added to initiate the reaction and the rate of fluorecense increase is recorded continuously using a fluorometer (excitation at 339 nm, emission at 562 nm).

In assay [1] the test system is specific binding sites in various tissues including kidney, adrenal, aorta, and vascular smooth muscle. To be noted: Needleman, Hypertension 7, 469 (1985), cited from earlier work.

Where two headings read alike, the source gives them in different places.

Regarding `C[C@H](NC(=O)C1(CS)CCc2ccccc2C1)C(=O)O` (stereo partly drawn) [101,890, N-[[1,2,3,4-Tetrahydro-2-(mercarptomethyl)-2-naphthalenyl]carbonyl]-L-alanine], on Enkephalinase, the affinity, expressed as Ki, was 0.3 nM.

On to `O=C(O)CNC(=O)C1(CS)CCc2ccccc2C1` (centres unmarked) [100,250, N-[[1,2,3,4-Tetrahydro-2-(mercarptomethyl)-2-naphthalenyl]carbonyl]-glycine], for which the inhibition constant (Ki) at Enkephalinase was 0.4 nM. Consider “dansyl-D-AlaGly(p-nitro)PheGly [reference compound]”, for which the Km at Enkephalinase (substrate of the assay) was 40 µM.

The molecule `O=C(O)CCNC(=O)C1(CS)CCc2ccccc2C1` (stereo not drawn) [100,185, N-[[1,2,3,4-Tetrahydro-2-(mercarptomethyl)-2-naphthalenyl]carbonyl]-β-alanine] returned an inhibitory constant (Ki) at Enkephalinase not above 0.2 nM. As for “ANP: family of naturally-occurring peptides which are involved in the homeostatic regulation of blood pressure, as well as sodium and water levels”, the Kd in assay [1] (affinities ranging from about, read-out: affinity (lower end of range)) was not below 0.05 nM; in assay [1] (affinities ranging to about, read-out: affinity (upper end of range)), not above 500 nM. Take `CC(C)[C@H](NC(=O)C1(CS)CCc2ccccc2C1)C(=O)O` (stereo partly drawn) [101,782, N-[[1,2,3,4-Tetrahydro-2-(mercarptomethyl)-2-naphthalenyl]carbonyl]-L-valine]: the Ki at Enkephalinase was found to be 2 nM. The same measure, in the same setting: under `O=C(N[C@H]1CC[C@@H](C(=O)O)CC1)C1(CS)CCc2ccccc2C1` (relative stereo) [100,552, 4-[[[1,2,3,4-Tetrahydro-2-(mercarptomethyl)-2-naphthalenyl]carbonyl]amino]- cis-cyclohexanecarboxylic acid] stands 0.6 nM.

Values taken from patent publication US5252601A, “2-mercaptomethylene-tetrahydronaphthalene and indane-2-carboxamide derivatives as enkephalinase inhibitors” (Merrell Dow Pharmaceuticals Inc., priority 1992, dated 1993).
